Assay results published in the supplement of paper PMC12513837.
± gives the standard deviation of the averaged measurements.

compound: CC(=O)N1CCc2c(c(N3CCCc4cc(-c5cnn(C)c5)c(C(F)F)cc43)nn2C2CCC(CN3CCN(c4ccc5c(c4)C(=O)N(C4CCC(=O)NC4=O)C5=O)CC3)CC2)C1 [CBPD-409]; experiment: AUC of viability dose-response curve (relative to vehicle, 8 doses up to 10 µM) (fraction); higher = less sensitive (more viable); extreme values may be limits of the assay
Protocol: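 PRISM multiplexed pooled barcoded cell line viability screen at the Broad Institute, 887 cancer cell lines treated with CBPD-409 (p300/CBP PROTAC degrader) at 8 concentrations in threefold dilution, top dose 10 µM. The read-out is the area under the dose-response curve of relative viability versus vehicle (n=3). AUC < 0.3 is called strongly sensitive and AUC > 0.8 resistant.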

Test System	AUC of viability dose-response curve
DMS53_LUNG	0.475
DMS273_LUNG	0.976
DND41_HAEMATOPOIETIC_AND_LYMPHOID_TISSUE	0.567
DOHH2_HAEMATOPOIETIC_AND_LYMPHOID_TISSUE	0.468
DOTC24510_CERVIX	0.344
DU145_PROSTATE	0.946
DU4475_BREAST	0.831
DV90_LUNG	0.588
EB1_HAEMATOPOIETIC_AND_LYMPHOID_TISSUE	1
EBC1_LUNG	0.537
ECC2_BILIARY_TRACT	0.402
ECGI10_OESOPHAGUS	0.903
EFE184_ENDOMETRIUM	0.79
EFM19_BREAST	0.575
EFM192A_BREAST	0.645
EFO21_OVARY	0.764
EFO27_OVARY	1
EGI1_BILIARY_TRACT	0.872
EKVX_LUNG	1
EM2_HAEMATOPOIETIC_AND_LYMPHOID_TISSUE	0.613
EMTOKA_ENDOMETRIUM	0.825
EOL1_HAEMATOPOIETIC_AND_LYMPHOID_TISSUE	0.207
ES2_OVARY	0.986
ESS1_ENDOMETRIUM	0.901
EW8_BONE	0.946

Test System	AUC of viability dose-response curve
EWS502_BONE	0.749 ± 0.15
FADU_UPPER_AERODIGESTIVE_TRACT	0.844
FLO1_OESOPHAGUS	0.731
FTC133_THYROID	0.549
FTC238_THYROID	0.734
G292CLONEA141B1_BONE	0.585 ± 0.31
G361_SKIN	0.186
G402_SOFT_TISSUE	0.514 ± 0.18
G415_BILIARY_TRACT	0.902
GAMG_CENTRAL_NERVOUS_SYSTEM	0.77
GB1_CENTRAL_NERVOUS_SYSTEM	0.595
GB2_BILIARY_TRACT	0.826
GCIY_STOMACH	0.542
GCT27_TESTIS	0.696
GCT_SOFT_TISSUE	0.541
GDM1_HAEMATOPOIETIC_AND_LYMPHOID_TISSUE	0.877
GI1_CENTRAL_NERVOUS_SYSTEM	0.602
GIMEN_AUTONOMIC_GANGLIA	0.616
GOS3_CENTRAL_NERVOUS_SYSTEM	0.79
GP2D_LARGE_INTESTINE	0.847
GP5D_LARGE_INTESTINE	1
GSS_STOMACH	0.349
GSU_STOMACH	0.326
H4_CENTRAL_NERVOUS_SYSTEM	0.625
H103_UPPER_AERODIGESTIVE_TRACT	0.997

Test System	AUC of viability dose-response curve
H157_UPPER_AERODIGESTIVE_TRACT	0.993
H357_UPPER_AERODIGESTIVE_TRACT	0.815
H376_UPPER_AERODIGESTIVE_TRACT	0.862
H413_UPPER_AERODIGESTIVE_TRACT	0.842
HA1E_KIDNEY	0.542
HAC2_OVARY	1
HARA_LUNG	0.981
HCA1_CERVIX	0.811
HCC15_LUNG	1
HCC38_BREAST	0.323
HCC44_LUNG	1
HCC56_LARGE_INTESTINE	0.809
HCC78_LUNG	0.807
HCC95_LUNG	1
HCC515_LUNG	0.612
HCC827_LUNG	0.731
HCC1143_BREAST	0.623
HCC1195_LUNG	1
HCC1359_LUNG	1
HCC1395_BREAST	0.783
HCC1419_BREAST	0.122
HCC1428_BREAST	0.667
HCC1438_LUNG	0.893
HCC1806_BREAST	1
HCC1937_BREAST	0.957

Test System	AUC of viability dose-response curve
HCC1954_BREAST	1
HCC2108_LUNG	0.793
HCC4006_LUNG	1
HCSC1_CERVIX	0.357
HCT15_LARGE_INTESTINE	0.354
HCT116_LARGE_INTESTINE	0.998
HDMB03_CENTRAL_NERVOUS_SYSTEM	0.453
HDQP1_BREAST	0.853
HEC1A_ENDOMETRIUM	0.407
HEC1B_ENDOMETRIUM	0.998
HEC1_ENDOMETRIUM	1
HEC6_ENDOMETRIUM	0.645
HEC50B_ENDOMETRIUM	0.851
HEC59_ENDOMETRIUM	0.677
HEC108_ENDOMETRIUM	0.693
HEC116_ENDOMETRIUM	0.78
HEC151_ENDOMETRIUM	1
HEC251_ENDOMETRIUM	0.841
HEC265_ENDOMETRIUM	0.695
HEL9217_HAEMATOPOIETIC_AND_LYMPHOID_TISSUE	0.229
HEL_HAEMATOPOIETIC_AND_LYMPHOID_TISSUE	0.267
HEP3B217_LIVER	0.4
HEPG2_LIVER	1
HEYA8_OVARY	1
HGC27_STOMACH	0.316

Test System	AUC of viability dose-response curve
HH_HAEMATOPOIETIC_AND_LYMPHOID_TISSUE	1
HKA1_SKIN	1
HKGZCC_BILIARY_TRACT	1
HL60_HAEMATOPOIETIC_AND_LYMPHOID_TISSUE	0.516
HLF_LIVER	1
HMC18_BREAST	0.932
HOS_BONE	0.931 ± 0.027
HOTHC_THYROID	0.845
HPAC_PANCREAS	1
HPAFII_PANCREAS	0.919
HPBALL_HAEMATOPOIETIC_AND_LYMPHOID_TISSUE	0.878
HS294T_SKIN	0.929
HS611T_HAEMATOPOIETIC_AND_LYMPHOID_TISSUE	0.742
HS683_CENTRAL_NERVOUS_SYSTEM	1
HS729_SOFT_TISSUE	0.807 ± 0.27
HS766T_PANCREAS	0.73
HS852T_SKIN	1
HS939T_SKIN	0.815
HS944T_SKIN	1
HSC1_SKIN	1
HSC2_UPPER_AERODIGESTIVE_TRACT	0.502
HSC3_UPPER_AERODIGESTIVE_TRACT	0.936
HSC5_SKIN	0.644
HSKTC_OVARY	1
HT3_CERVIX	0.711

Test System	AUC of viability dose-response curve
HT29_LARGE_INTESTINE	0.633
HT55_LARGE_INTESTINE	0.509
HT115_LARGE_INTESTINE	1
HT144_SKIN	1
HT1080_SOFT_TISSUE	1
HT1197_URINARY_TRACT	1
HT1376_URINARY_TRACT	1
HTMMT_ENDOMETRIUM	0.65
HT_HAEMATOPOIETIC_AND_LYMPHOID_TISSUE	0.672
HUCCT1_BILIARY_TRACT	0.983
HUG1N_STOMACH	1
HUH1_LIVER	0.882
HUH6_LIVER	1
HUH7_LIVER	0.796
HUO9_BONE	0.679
HUPT3_PANCREAS	0.687
HUPT4_PANCREAS	0.784
HUT78_HAEMATOPOIETIC_AND_LYMPHOID_TISSUE	1
IALM_LUNG	0.311
ICC4_BILIARY_TRACT	0.706
ICC8_BILIARY_TRACT	1
ICC9_BILIARY_TRACT	1
ICC10_BILIARY_TRACT	0.827
